Results: PMC10893082, “Development and Optimization of Andrographis paniculata Extract-Loaded Self-Microemulsifying Drug Delivery System Using Experimental Design Model” (Pharmaceutics, 2024)
In brackets after ≈: the same amount, converted by molar mass.

What was measured:
[1] = test system: SARS-CoV-2; set-up: method as in ref 6, Sa-ngiamsuntorn et al., (2021); conditions: Sa-ngiamsuntorn et al., (2021); cited from earlier work
[2] = physchem; assay type: physicochemical
Protocol: To find the solubility of AGP in the optimized SMEDDS (highest amount of AGP that can be loaded into the optimized SMEDDS), an excess amount of A. paniculata extract was added to the 1.5 mL of the optimized SMEDDS and shaken at 37 °C 120 rpm for 72 h in an incubator shaker. Then, the AGPE-loaded optimized SMEDDS was centrifuged at 14,000 rpm for 30 min to separate the extract powder from the AGP-extracted SMEDDS. The supernatant was collected and diluted with methanol before the analysis of AGP content using HPLC. HPLC analysis with UV detection was used to quantify the content of AGP. An Agilent® 1200 (Santa Clara, CA, USA) with an Agilent® ZORBAX Eclipse XDB-C18 (4.6 × 150 mm, 5 µm) column was used. The mobile phase was methanol:water (65:35), and the injection volume was 20 µL. The flow rate was set at 0.8 mL/min, and the detection wavelength was 228 nm. The standard curve of AGP was constructed, ranging from 5 to 200 µg/mL.

[3] = set-up: method as in ref 53, Kim et al., (2019); conditions: Kim et al., (2019), cited from earlier work

Row | Structure (SMILES) | anti-SARS-CoV-2 activity, IC50 [1] | solubility [2] [mg/mL] | solubility at 72 h ([2]; 37 °C, thermodynamic from solid) [mg/mL] | Time within which dissolution was completed ([3]; SMEDDS formulation) [min] | Drug powder dissolved ([3]; drug powder, after 60 min) [%]
1 | C=C1CC[C@@H]2[C@](C)(CO)[C@H](O)CC[C@@]2(C)[C@@H]1C/C=C1/C(=O)OC[C@H]1O [AGP, andrographolide] | equivalent to the antiviral agent remdesivir | ~42 (≈ 120 mM) | ~38 (≈ 108 mM) |  | 
2 | CN(Cc1cnc2nc(N)nc(N)c2n1)c1ccc(C(=O)N[C@@H](CCC(=O)O)C(=O)O)cc1 [methotrexate] |  |  |  | ≤ 20 | 53
